Measurements as given in patent US20240182596A1, “ANTI-NAPI2B ANTIBODIES AND ANTIBODY-DRUG-CONJUGATES BASED THEREON, THERAPEUTIC METHODS AND USES THEREOF” (Tubulis GmbH, priority 2022, published 2024).

Tested on: OVCAR-3 cells
Assay: In vitro inhibition of Topoisomerase-I by delivery of Exatecan via the ADC (DNA-damage markers)
Format: cell-based
Settings: 5 μg/mL, 72 h
Method: OVCAR-3 cells were treated with 5 μg/mL TUB-040 or 5 nM free Exatecan for 72 h. Cells were stained with Live/Dead stain and for the DNA-damage markers active caspase-3, cleaved PARP and phosphorylated H2A.X (Ser-139) and analyzed by flow cytometry. Graphs show means of n=2±SEM (FIG. 9).

TUB-040
Induction of DNA-damage markers (active caspase-3, cleaved PARP, phosphorylated H2A.X): induces DNA-damage markers
